In patent publication US20130157954A1, “METHODS FOR TREATMENT OR PROPHYLAXIS OF KIDNEY OR LIVER DYSFUNCTION” (NPS PHARMACEUTICALS, INC., priority 2010, published 2013):

Assay: Example 2: liver biomarkers (albumin, gamma glutamyl transferase, total bilirubin, ALT, AST, ALP) in short bowel syndrome patients, every four weeks for 24 weeks; also sorted by >10% change from baseline
Assay type: in vivo, Human
Conditions: 0.05 mg/kg/d; for Bilirubin: subjects Within 10% of Baseline / Bilirubin: subjects with >10% decrease from Baseline / Bilirubin: subjects with >10% increase from Baseline / ALT: subjects Within 10% of Baseline / ALT: subjects with >10% decrease from Baseline / ALT: subjects with >10% increase from Baseline / AST: subjects Within 10% of Baseline / AST: subjects with >10% decrease from Baseline / AST: subjects with >10% increase from Baseline / Albumin: subjects Within 10% of Baseline / Albumin: subjects with >10% decrease from Baseline / Albumin: subjects with >10% increase from Baseline / Alkaline Phosphatase: subjects Within 10% of Baseline / Alkaline Phosphatase: subjects with >10% decrease from Baseline / Alkaline Phosphatase: subjects with >10% increase from Baseline: m = 40
Procedure: To further confirm the results of Example 1, a further study was conducted involving more individuals and additional diagnostic biomarkers. Human patients with short bowel syndrome were divided into two groups: a control group (43 total individuals) to receive placebo, and an experimental group (42 total individuals) to receive teduglutide at 0.05 mg/kg/day throughout the study. Patients were treated by subcutaneous injection of placebo or the appropriate dose of teduglutide. Known biomarkers of liver function were monitored every four weeks, for 24 weeks. The liver biomarkers tested included albumin, gamma glutamyl transferase, total bilirubin, ALT and AST and ALP. Before administration of placebo or teduglutide, diagnostic biomarker levels were tested to establish a baseline for each individual.
To determine the effect of GLP-2 on the levels of the diagnostic biomarkers, the average level of each biomarker was measured for the placebo and teduglutide treated groups for each visit. Furthermore, the average change from baseline was calculated using the established baseline values. For FIGS. 17-28, p-values were calculated using the t-test.
P values are provided, which were calculated for each distribution of biomarker changes for each week using the chi-squared test.

CC[C@H](C)[C@H](NC(=O)[C@H](Cc1ccccc1)NC(=O)[C@H](CC(=O)O)NC(=O)[C@H](CCCNC(=N)N)NC(=O)[C@H](C)NC(=O)[C@H](C)NC(=O)[C@H](CC(C)C)NC(=O)[C@H](CC(N)=O)NC(=O)[C@H](CC(=O)O)NC(=O)[C@H](CC(C)C)NC(=O)[C@@H](NC(=O)[C@@H](NC(=O)[C@H](CC(N)=O)NC(=O)[C@H](CCSC)NC(=O)[C@H](CCC(=O)O)NC(=O)[C@H](CC(=O)O)NC(=O)[C@H](CO)NC(=O)[C@H](Cc1ccccc1)NC(=O)[C@H](CO)NC(=O)CNC(=O)[C@H](CC(=O)O)NC(=O)CNC(=O)[C@@H](N)Cc1c[nH]cn1)[C@@H](C)O)[C@@H](C)CC)C(=O)N[C@@H](CC(N)=O)C(=O)N[C@@H](Cc1c[nH]c2ccccc12)C(=O)N[C@@H](CC(C)C)C(=O)N[C@H](C(=O)N[C@@H](CCC(N)=O)C(=O)N[C@H](C(=O)N[C@@H](CCCCN)C(=O)N[C@H](C(=O)N[C@H](C(=O)N[C@@H](CC(=O)O)C(=O)O)[C@@H](C)O)[C@@H](C)CC)[C@@H](C)O)[C@@H](C)CC [teduglutide]
Bilirubin: subjects Within 10% of Baseline (Week 2): 5 (12.5%) n (%) | Bilirubin: subjects with >10% decrease from Baseline (Week 2): 28 (70.0%) n (%) | Bilirubin: subjects with >10% increase from Baseline (Week 2): 7 (17.5%) n (%) | ALT Change from Baseline, Max (Week 4): 29 U/L | ALT Change from Baseline, Mean (Week 4): −9.2 U/L | ALT Change from Baseline, Median (Week 4): −7 U/L | ALT Change from Baseline, Min (Week 4): −44 U/L | ALT Observed Value, Max (Week 4): 104 U/L | ALT Observed Value, Median (Week 4): 29 U/L | ALT Observed Value, Min (Week 4): 8 U/L | AST Change from Baseline, Max (Week 4): 43 U/L | AST Change from Baseline, Mean (Week 4): −3.5 U/L | AST Change from Baseline, Median (Week 4): −5 U/L | AST Change from Baseline, Min (Week 4): −31 U/L | AST Observed Value, Max (Week 4): 89 U/L | AST Observed Value, Min (Week 4): 13 U/L | Albumin Change from Baseline, Max (Week 4): 5 g/L | Albumin Change from Baseline, Mean (Week 4): -0.7 g/L | Albumin Change from Baseline, Median (Week 4): -1 g/L | Albumin Change from Baseline, Min (Week 4): -7 g/L | Albumin Observed Value, Max (Week 4): 47 g/L | Albumin Observed Value, Median (Week 4): 42 g/L | Albumin Observed Value, Min (Week 4): 34 g/L | Alkaline Phosphatase Change from Baseline, Max (Week 4): 34 U/L | Alkaline Phosphatase Change from Baseline, Min (Week 4): −89 U/L | Alkaline Phosphatase Observed Value, Max (Week 4): 307 U/L | Alkaline Phosphatase Observed Value, Min (Week 4): 54 U/L | Bilirubin Change from Baseline, Max (Week 4): 9.0 µmol/L | Bilirubin Change from Baseline, Mean (Week 4): -1.10 µmol/L | Bilirubin Change from Baseline, Median (Week 4): -1.5 µmol/L | Bilirubin Change from Baseline, Min (Week 4): -14.2 µmol/L | Bilirubin Observed Value, Max (Week 4): 54.0 µmol/L | Bilirubin Observed Value, Min (Week 4): 3.4 µmol/L | Gamma Glutamyl Transferase Change from Baseline, Max (Week 4): 105 U/L | Gamma Glutamyl Transferase Change from Baseline, Mean (Week 4): 1.7 U/L | Gamma Glutamyl Transferase Change from Baseline, Median (Week 4): −0.5 U/L | Gamma Glutamyl Transferase Change from Baseline, Min (Week 4): −88 U/L | Gamma Glutamyl Transferase Observed Value, Max (Week 4): 309 U/L | Gamma Glutamyl Transferase Observed Value, Min (Week 4): 12 U/L | ALT: subjects Within 10% of Baseline (Week 4): 8 (20.0%) n (%) | ALT: subjects with >10% decrease from Baseline (Week 4): 26 (65.0%) n (%) | ALT: subjects with >10% increase from Baseline (Week 4): 6 (15.0%) n (%) | AST: subjects Within 10% of Baseline (Week 4): 6 (15.0%) n (%) | AST: subjects with >10% decrease from Baseline (Week 4): 26 (65.0%) n (%) | AST: subjects with >10% increase from Baseline (Week 4): 8 (20.0%) n (%) | Albumin: subjects Within 10% of Baseline (Week 4): 35 (87.5%) n (%) | Albumin: subjects with >10% decrease from Baseline (Week 4): 3 (7.5%) n (%) | Albumin: subjects with >10% increase from Baseline (Week 4): 2 (5.0%) n (%) | Alkaline Phosphatase: subjects Within 10% of Baseline (Week 4): 16 (40.0%) n (%) | Alkaline Phosphatase: subjects with >10% decrease from Baseline (Week 4): 22 (55.0%) n (%) | Alkaline Phosphatase: subjects with >10% increase from Baseline (Week 4): 2 (5.0%) n (%) | Bilirubin: subjects Within 10% of Baseline (Week 4): 7 (17.5%) n (%) | Bilirubin: subjects with >10% decrease from Baseline (Week 4): 19 (47.5%) n (%) | Bilirubin: subjects with >10% increase from Baseline (Week 4): 14 (35.0%) n (%) | ALT Change from Baseline, Max (Week 8): 20 U/L | ALT Change from Baseline, Median (Week 8): −5.5 U/L | ALT Change from Baseline, Min (Week 8): −65 U/L | ALT Observed Value, Max (Week 8): 138 U/L | ALT Observed Value, Median (Week 8): 26 U/L | ALT Observed Value, Min (Week 8): 9 U/L | AST Change from Baseline, Max (Week 8): 17 U/L | AST Change from Baseline, Mean (Week 8): −5.1 U/L | AST Change from Baseline, Median (Week 8): −5 U/L | AST Change from Baseline, Min (Week 8): −46 U/L | AST Observed Value, Max (Week 8): 63 U/L | AST Observed Value, Min (Week 8): 8 U/L | Albumin Change from Baseline, Max (Week 8): 4 g/L | Albumin Change from Baseline, Mean (Week 8): -0.7 g/L | Albumin Change from Baseline, Median (Week 8): -1 g/L | Albumin Change from Baseline, Min (Week 8): -5 g/L | Albumin Observed Value, Max (Week 8): 48 g/L | Albumin Observed Value, Median (Week 8): 42 g/L | Albumin Observed Value, Min (Week 8): 36 g/L | Alkaline Phosphatase Change from Baseline, Max (Week 8): 19 U/L | Alkaline Phosphatase Change from Baseline, Min (Week 8): −105 U/L | Alkaline Phosphatase Observed Value, Max (Week 8): 341 U/L | Alkaline Phosphatase Observed Value, Median (Week 8): 94 U/L | Alkaline Phosphatase Observed Value, Min (Week 8): 46 U/L | Bilirubin Change from Baseline, Max (Week 8): 6.8 µmol/L | Bilirubin Change from Baseline, Mean (Week 8): -1.60 µmol/L | Bilirubin Change from Baseline, Median (Week 8): -0.95 µmol/L | Bilirubin Change from Baseline, Min (Week 8): -14.9 µmol/L | Bilirubin Observed Value, Max (Week 8): 61.8 µmol/L | Bilirubin Observed Value, Min (Week 8): 3.4 µmol/L | Gamma Glutamyl Transferase Change from Baseline, Max (Week 8): 77 U/L | Gamma Glutamyl Transferase Change from Baseline, Mean (Week 8): −5.7 U/L | Gamma Glutamyl Transferase Change from Baseline, Median (Week 8): −5.5 U/L | Gamma Glutamyl Transferase Change from Baseline, Min (Week 8): −145 U/L | Gamma Glutamyl Transferase Observed Value, Max (Week 8): 281 U/L | Gamma Glutamyl Transferase Observed Value, Median (Week 8): 46 U/L | Gamma Glutamyl Transferase Observed Value, Min (Week 8): 6 U/L | ALT: subjects Within 10% of Baseline (Week 8): 7 (17.5%) n (%) | ALT: subjects with >10% decrease from Baseline (Week 8): 26 (65.0%) n (%) | ALT: subjects with >10% increase from Baseline (Week 8): 7 (17.5%) n (%) | AST: subjects Within 10% of Baseline (Week 8): 8 (20.0%) n (%) | AST: subjects with >10% decrease from Baseline (Week 8): 24 (60.0%) n (%) | AST: subjects with >10% increase from Baseline (Week 8): 8 (20.0%) n (%) | Albumin: subjects Within 10% of Baseline (Week 8): 38 (95.0%) n (%) | Albumin: subjects with >10% decrease from Baseline (Week 8): 1 (2.5%) n (%) | Albumin: subjects with >10% increase from Baseline (Week 8): 1 (2.5%) n (%) | Alkaline Phosphatase: subjects Within 10% of Baseline (Week 8): 13 (32.5%) n (%) | Alkaline Phosphatase: subjects with >10% decrease from Baseline (Week 8): 25 (62.5%) n (%) | Alkaline Phosphatase: subjects with >10% increase from Baseline (Week 8): 2 (5.0%) n (%)
